Test results reported in patent US10239832B2, “N-(1-hydroxy-3-(pyrrolidinyl)propan-2-yl)pyrrolidine-3-carboxamide derivatives as glucosylceramide synthase inhibitors” (BIOMARIN PHARMACEUTICAL INC., priority 2013, dated 2019).

What follows are compounds tested against T1, GCS (Canis lupus familiaris, UniProt A0A8I3MXG6) (assay: GCS enzymatic assay (MDCK cell lysate, NBD-ceramide to glucosylceramide, LC/MS)). Settings: Table 2; class symbols A, B, C; the table does not say which of the assays; read-out: Data Range (IC50 values).
T1 construct: endogenous in cells; host or cells: MDCK (Madin-Darby canine kidney) cells, whole-cell lysate
T1 sequence (A0A8I3MXG6 1-394): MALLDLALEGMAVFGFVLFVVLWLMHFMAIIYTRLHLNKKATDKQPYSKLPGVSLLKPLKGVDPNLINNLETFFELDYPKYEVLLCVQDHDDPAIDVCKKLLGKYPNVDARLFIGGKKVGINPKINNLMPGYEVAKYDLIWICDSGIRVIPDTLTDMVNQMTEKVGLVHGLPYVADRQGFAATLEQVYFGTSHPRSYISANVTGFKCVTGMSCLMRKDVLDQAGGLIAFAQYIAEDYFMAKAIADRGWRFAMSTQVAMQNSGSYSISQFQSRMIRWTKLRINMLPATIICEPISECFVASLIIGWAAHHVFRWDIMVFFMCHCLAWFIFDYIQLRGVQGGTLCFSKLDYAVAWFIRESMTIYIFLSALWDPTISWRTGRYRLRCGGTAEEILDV
Format: biochemical, canine
Outline: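 Dog MDCK cell lysate served as enzyme source, with NBD-ceramide turned over to glucosylceramide and 0.1% DMSO as mock control. The reaction was stopped with acetonitrile. Both lipids were quantified by LC/MS/MS in ESI positive MRM mode against a tolbutamide internal standard, giving IC50 or percent inhibition.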

SMILES | IC50 [nM]
O=C(N[C@H](CN1CCC1)[C@H](O)c1ccc(OC2COC2)c(Cl)c1)[C@@H]1CCN(c2ccc3cc(F)ccc3c2)C1 [Compound 122, (R)-N-((1R,2R)-3-(azetidin-1-yl)-1-(3-chloro-4-(oxetan-3-yloxy)phenyl)-1-hydroxypropan-2-yl)-1-(6-fluoronaphthalen-2-yl)pyrrolidine-3-carboxamide] | 1 to 30
O=C(N[C@H](CN1CCCC1)[C@H](O)c1cc(F)c2c(c1)OCCO2)[C@@H]1CCN(c2cccc(-c3ccc(F)cc3)n2)C1 [Compound 124, (R)-N-((1R,2R)-1-(8-fluoro-2,3-dihydrobenzo[b][1,4]dioxin-6-yl)-1-hydroxy-3-(pyrrolidin-1-yl)propan-2-yl)-1-(6-(4-fluorophenyl)pyridin-2-yl)pyrrolidine-3-carboxamide] | 1 to 30
O=C(N[C@H](CN1CCC1)[C@H](O)c1cc(F)c2c(c1)OCCO2)[C@@H]1CCN(c2ccc3cc(F)ccc3c2)C1 [Compound 47, (R)-N-((1R,2R)-3-(azetidin-1-yl)-1-(8-fluoro-2,3-dihydrobenzo[b][1,4]dioxin-6-yl)-1-hydroxypropan-2-yl)-1-(6-fluoronaphthalen-2-yl)pyrrolidine-3-carboxamide] | 1 to 30
O=C(N[C@H](CN1CCC1)[C@H](O)c1ccc(OC2CC2)cc1)[C@H]1CCN(c2ccc3cc(F)ccc3c2)C1 [Compound 159C, (S)-N-((1R,2R)-3-(azetidin-1-yl)-1-(4-cyclopropoxyphenyl)-1-hydroxypropan-2-yl)-1-(6-fluoronaphthalen-2-yl)pyrrolidine-3-carboxamide] | 100 to 1000
O=C(N[C@H](CN1CCC1)[C@H](O)c1ccc(OC2CC2)cc1)[C@@H]1CCN(c2ccc3ccsc3c2)C1 [Compound 158, (R)-N-((1R,2R)-3-(azetidin-1-yl)-1-(4-cyclopropoxyphenyl)-1-hydroxypropan-2-yl)-1-(benzo[b]thiophen-6-yl)pyrrolidine-3-carboxamide] | 30 to 100
Cn1ncc2ccc(N3CC[C@@H](C(=O)N[C@H](CN4CCC4)[C@H](O)c4cc(F)c5c(c4)OCCO5)C3)cc21 [Compound 134, (R)-N-((1R,2R)-3-(azetidin-1-yl)-1-(8-fluoro-2,3-dihydrobenzo[b][1,4]dioxin-6-yl)-1-hydroxypropan-2-yl)-1-(1-methyl-1H-indazol-6-yl)pyrrolidine-3-carboxamide] | 1 to 30
O=C(N[C@H](CN1CCC1)[C@H](O)c1cc(F)c2c(c1)OCCO2)[C@@H]1CCN(c2ccc3ccccc3c2)C1 [Compound 85, (R)-N-((1R,2R)-3-(azetidin-1-yl)-1-(8-fluoro-2,3-dihydrobenzo[b][1,4]dioxin-6-yl)-1-hydroxypropan-2-yl)-1-(naphthalen-2-yl)pyrrolidine-3-carboxamide] | 1 to 30
O=C(N[C@H](CN1CCCC1)[C@H](O)c1cc(F)c2c(c1)OCCO2)[C@@H]1CCN(c2cccc(Oc3ccc(Cl)cc3)n2)C1 [Compound 114, (R)-1-(6-(4-chlorophenoxy)pyridin-2-yl)-N((1R,2R)-1-(8-fluoro-2,3-dihydrobenzo[b][1,4]dioxin-6-yl)-1-hydroxy-3-(pyrrolidin-1-yl)propan-2-yl)pyrrolidine-3-carboxamide] | 1 to 30
O=C(N[C@H](CN1CCCC1)[C@H](O)c1ccc2c(c1)OCCO2)[C@@H]1CCN(c2cccc(Oc3ccc(Cl)cc3)n2)C1 [Compound 113, (R)-1-(6-(4-chlorophenoxy)pyridin-2-yl)-N((1R,2R)-1-(2,3-dihydrobenzo[b][1,4]dioxin-6-yl)-1-hydroxy-3-(pyrrolidin-1-yl)propan-2-yl)pyrrolidine-3-carboxamide] | 1 to 30

Same assay, conditions: Table 2; class symbols D, E, F, NA (not active); the table does not say which of the assays

SMILES | Data Range (% inhibition)
O=C(N[C@H](CN1CCCC1)[C@H](O)c1cc(F)c2c(c1)OCCO2)[C@H]1CCN(c2ccc3ccsc3c2)C1 [Compound 97C, (S)-1-(benzo[b]thiophen-6-yl)-N-((1R,2R)-1-(8-fluoro-2,3-dihydrobenzo[b][1,4]dioxin-6-yl)-1-hydroxy-3-(pyrrolidin-1-yl)propan-2-yl)pyrrolidine-3-carboxamide] | E (50-74% (or less than 75%))
O=C(N[C@H](CN1CCCC1)[C@H](O)c1ccc2c(c1)OCCO2)C1CCN(C2CCCCC2)C1 (stereo partly drawn) [Compound 26, 1-cyclohexyl-N-((1R,2R)-1-(2,3-dihydrobenzo[b][1,4]dioxin-6-yl)-1-hydroxy-3-(pyrrolidin-1-yl)propan-2-yl)pyrrolidine-3-carboxamide] | NA (not active—a negative value was generated for % inhibition)
O=C(N[C@H](CN1CCCC1)[C@H](O)c1ccc2c(c1)OCCO2)[C@H]1CCN(c2ccccn2)C1 [Compound 22D, (S)-N-((1R,2R)-1-(2,3-dihydrobenzo[b][1,4]dioxin-6-yl)-1-hydroxy-3-(pyrrolidin-l-yl)propan-2-yl)-1-(pyridin-2-yl)pyrrolidine-3-carboxamide] | F (1-49% (or less than 50%))
O=C(N[C@H](CN1CCCC1)[C@H](O)c1ccc2c(c1)OCCO2)C1CCN(c2ccc(Cl)c(OC3CC3)c2)C1 (some centres unmarked) [Compound 19] | E (50-74% (or less than 75%))
CN1CCc2ccc(N3CCC(C(=O)N[C@H](CN4CCCC4)[C@H](O)c4ccc5c(c4)OCCO5)C3)cc2C1 (stereo partly drawn) [Compound 63C, N-((1R,2R)-1-(2,3-dihydrobenzo[b][1,4]dioxin-6-yl)-1-hydroxy-3-(pyrrolidin-1-yl)propan-2-yl)-1-(2-methyl-1,2,3,4-tetrahydroisoquinolin-7-yl)pyrrolidine-3-carboxamide] | F (1-49% (or less than 50%))
O=C(N[C@H](CN1CCCC1)[C@H](O)c1ccc2c(c1)OCCO2)[C@H]1CCN(c2ccc3cc(Cl)ccc3n2)C1 [Compound 99D, (S)-1-(6-chloroquinolin-2-yl)-N-((1R,2R)-1-(2,3-dihydrobenzo[b][1,4]dioxin-6-yl)-1-hydroxy-3-(pyrrolidin-1-yl)propan-2-yl)pyrrolidine-3-carboxamide] | F (1-49% (or less than 50%))
O=C(N[C@H](CN1CCCC1)[C@H](O)c1ccc2c(c1)OCCO2)C1CCN(c2ccc(Cl)cn2)C1 (stereo partly drawn) [Compound 28C, 1-(5-chloropyridin-2-yl)-N-((1R,2R)-1-(2,3-dihydrobenzo[b][1,4]dioxin-6-yl)-1-hydroxy-3-(pyrrolidin-1-yl)propan-2-yl)pyrrolidine-3-carboxamide] | F (1-49% (or less than 50%))
O=C(N[C@H](CN1CCCC1)[C@H](O)c1ccc(OC2CC2)c(F)c1)[C@H]1CCN(c2ccc(F)cc2)C1 [Compound 69A, (S)-N-((1R,2R)-1-(4-cyclopropoxy-3-fluorophenyl)-1-hydroxy-3-(pyrrolidin-1-yl)propan-2-yl)-1-(4-fluorophenyl)pyrrolidine-3-carboxamide] | F (1-49% (or less than 50%))
O=C(N[C@H](CN1CCCC1)[C@H](O)c1ccc(N2CCOCC2)c(Cl)c1)[C@H]1CCN(c2ccc(Cl)cc2)C1 [Compound 74C, (S)-N-((1R,2R)-1-(3-chloro-4-morpholinophenyl)-1-hydroxy-3-(pyrrolidin-1-yl)propan-2-yl)-1-(4-chlorophenyl)pyrrolidine-3-carboxamide] | NA (not active—a negative value was generated for % inhibition)
O=C(N[C@H](CN1CCC1)[C@H](O)c1ccc(OC2CC2)c(Cl)c1)[C@@H]1CCN(c2ccc3cc(F)ccc3c2)C1 [Compound 95, (R)-N-((1R,2R)-3-(azetidin-1-yl)-1-(3-chloro-4-cyclopropoxyphenyl)-1-hydroxypropan-2-yl)-1-(6-fluoronaphthalen-2-yl)pyrrolidine-3-carboxamide] | D (75-100%)
O=C(N[C@H](CN1CCCC1)[C@H](O)c1ccc(OC2CC2)c(Cl)c1)[C@H]1CCN(c2ccc3ccccc3c2)C1 [Compound 67C, (S)-N-((1R,2R)-1-(3-chloro-4-cyclopropoxyphenyl)-1-hydroxy-3-(pyrrolidin-1-yl)propan-2-yl)-1-(naphthalen-2-yl)pyrrolidine-3-carboxamide] | E (50-74% (or less than 75%))
O=C(N[C@H](CN1CCCC1)[C@H](O)c1ccc2c(c1)OCCO2)[C@@H]1CCN(C2CCOCC2)C1 [Compound 9, (R)-N-((1R,2R)-1-(2,3-dihydrobenzo[b][1,4]dioxin-6-yl)-1-hydroxy-3-(pyrrolidin-1-yl)propan-2-yl)-1-(tetrahydro-2H-pyran-4-yl)pyrrolidine-3-carboxamide] | NA (not active—a negative value was generated for % inhibition)
O=C(N[C@H](CN1CCCC1)[C@H](O)c1cc(F)c2c(c1)OCCO2)[C@@H]1CCN(C(=O)c2ccccc2)C1 [Compound 120, (R)-1-benzoyl-N-((1R,2R)-1-(8-fluoro-2,3-dihydrobenzo[b][1,4]dioxin-6-yl)-1-hydroxy-3-(pyrrolidin-1-yl)propan-2-yl)pyrrolidine-3-carboxamide] | F (1-49% (or less than 50%))
O=C(N[C@H](CN1CCCC1)[C@H](O)c1ccc2c(c1)OCCO2)[C@H]1CCN(c2cnc3cccnc3c2)C1 [Compound 90D, (S)-N-((1R,2R)-1-(2,3-dihydrobenzo[b][1,4]dioxin-6-yl)-1-hydroxy-3-(pyrrolidin-1-yl)propan-2-yl)-1-(1,5-naphthyridin-3-yl)pyrrolidine-3-carboxamide] | F (1-49% (or less than 50%))
